Assays:
[1] = tested on: Human stomach cancer cell line (NCI-N87); experiment: Potentiation of antitumor effect of paclitaxel, NCI-N87 subcutaneous implant in nude mice (Test Example 2); type: in vivo, BALB/cA Jcl-nu/nu mice
Experimental: In the figure, the asterisk represents a result having a statistically significant difference compared with the single-drug administration group. FIG. 1 and Table 10 show the results. […] Ltd.) was prepared to enable administration at a paclitaxel dose of 60 mg/kg/day. Further, test liquids for the groups receiving only Compound-I were prepared to enable administration at Compound-I doses of 8 mg/kg/day, 16 mg/kg/day, and 24 mg/kg/day. […] In the groups receiving the two drugs, Compound-I was administered at doses of 8 mg/kg/day, 16 mg/kg/day, and 24 mg/kg/day, and paclitaxel was administered at a dose of 60 mg/kg/day. The evaluation was performed in the same manner as in Test Example 1. The effect of the combined administration was also statistically determined in the same manner as in Test Example 1. In the figure and the table, the asterisk represents a result having a statistically significant difference compared with the single-drug administration group. FIG. 3 and Table 11 show the results.

[2] = tested on: Human ovarian cancer cell line (A2780); experiment: Potentiation of antitumor effect of doxorubicin, A2780 subcutaneous implant in nude mice (Test Example 6); type: in vivo, BALB/cA Jcl-nu/nu mice
Experimental: In the groups receiving only Compound-I, the test liquid was prepared by diluting Compound-I with 0.5% HPMC to enable administration at a Compound-I dose of 16 mg/kg/day. […] The effect of the combined administration was also statistically determined in the same manner as in Test Example 1.

[3] = tested on: Human stomach cancer cell line (NCI-N87); experiment: Potentiation of antitumor effect of lapatinib, NCI-N87 subcutaneous implant in nude mice (Test Example 4); type: in vivo, BALB/cA Jcl-nu/nu mice; conditions: compound-I 16 mg/kg/day p.o. day 1-14 (q.d.)
Experimental: In the figure, the asterisk represents a result having a statistically significant difference compared with the single-drug administration group. FIG. 1 and Table 10 show the results. […] Lapatinib was prepared by adjusting its dose to 100 mg/kg/day. Further, the test liquid of Compound-I was prepared by adjusting its dose to 16 mg/kg/day. […] The effect of the combined administration was also statistically determined in the same manner as in Test Example 1. In the figure and the table, the asterisk represents a result having a statistically significant difference compared with the single-drug administration group. FIG. 7 and Table 13 show the results.

[4] = tested on: Human stomach cancer cell line (4-1ST); experiment: Potentiation of effect of trastuzumab (Herceptin), 4-1ST subcutaneous implant in nude mice (Test Example 11); type: in vivo, BALB/cA Jcl-nu/nu mice; conditions: Day 1~14, p.o.
Experimental: As an index of antitumor effect, the TV at Day 15 was measured for each of the drug administration groups, and the relative tumor volume (RTV) relative to Day 1 and T/C (%) were calculated by the following formulas to evaluate the antitumor effect.
TV (mm^3)=(length×width^2)/2 RTV=(TV at Day 15)/(TV at Day 1) T/C(%)=(average RTV value of the test liquid administration group)/(average RTV value of the control group)×100
Human stomach cancer cell line (4-1ST) was subcutaneously implanted into the right flank of 6-week-old male BALB/cA Jcl-nu/nu mice, and was used in the same manner as in Test Example 1.
According to the package insert, 7.2 mL of water for injection was added to a vial containing 150 mg of trastuzumab (Roche Pharma) using a sterilized injection syringe. The resulting 21 mg/mL solution was kept in a freezer. At the time of use, the frozen solution was diluted 10.5-fold with 4.75 mL of physiological saline at a trastuzumab concentration of 2.0 mg/mL, to yield a liquid for administration at a trastuzumab dose of 20 mg/kg/day. The test liquids of Compound-I were prepared to enable administration at doses of 16 and 24 mg/kg/day.
Compound-I and trastuzumab were administered once a day from Day 1 to 14. In the combined administration groups, Compound-I was administrated at a dose of 16 and 24 mg/kg/day, trastuzumab was administrated at a dose of 20 mg/kg/day, and the evaluation was performed in the same manner as in Test Example 1. FIGS. 17A and 17B and Table 20 show the results. In the medium/Compound I administration group, the test liquid was orally administered once a day for consecutive days. In the trastuzumab administration group, the test liquid was intraperitoneally administered once a day for consecutive days.
The effect of the combined administration was statistically determined in the same manner as in Test Example 7.

[5] = tested on: Human ovarian cancer cell line (A2780); experiment: Potentiation of antitumor effect of carboplatin, A2780 subcutaneous implant (Test Example 3); type: in vivo, nude rats; conditions: compound-I 16 mg/kg/day p.o. day 1-14
Experimental: In the figure, the asterisk represents a result having a statistically significant difference compared with the single-drug administration group. FIG. 1 and Table 10 show the results. […] Carboplatin was prepared by diluting a […] injection (Bristol-Myers Squibb, 50 mg/5 mL) two-fold with physiological saline to enable administration at a carboplatin dose of 50 mg/kg/day. Further, the test liquid of Compound-I was prepared by adjusting its dose to 16 mg/kg/day. […] The single-drug administration group was administered 0.5% HPMC or a physiological saline as a vehicle instead of Compound-I or carboplatin. […] FIG. 5 and Table 12 show the results. […] The effect of the combined administration was also statistically determined in the same manner as in Test Example 1. In the figure and the table, the asterisk represents a result having a statistically significant difference compared with the single-drug administration group.

[6] = compound-I 8 mg/kg/day p.o. day 1-14
[7] = compound-I 16 mg/kg/day p.o. day 1-14
[8] = compound-I 24 mg/kg/day p.o. day 1-14

## CC1(O)CC(N)(c2ccc(-c3nc4n(c3-c3ccccc3)COc3ccncc3-4)cc2)C1 (stereo not drawn) [compound-I, trans-3-amino-1-methyl-3-(4-(3-phenyl-5H-imidazo[1,2-c]pyrido[3,4-e][1,3]oxazin-2-yl)phenyl)cyclobutanol]
[1]; [6]
  RTV day 15 Mean ± SD: 2.02 ± 0.41
  T/C (%): 59%
[1]; [7]
  RTV day 15 Mean ± SD: 1.32 ± 0.38
  T/C (%): 39%
[1]; [8]
  RTV day 15 Mean ± SD: 0.98 ± 0.28
  T/C (%): 29%
[2]; compound-I 16 mg/kg/day day 1-14
  T/C (%): 80%
[2]; [7]
  RTV day 15 Mean ± SD: 22.17 ± 7.20
[3]
  RTV day 15 Mean ± SD: 1.14 ± 0.11
  T/C (%): 42%
[4]; compound-I 16 mg/kg/day
  RTV^b) (mean ± SD): 3.01 ± 0.51
  TGI^c) (%): 57.5%
[4]; compound-I 24 mg/kg/day
  RTV^b) (mean ± SD): 2.74 ± 0.29
  TGI^c) (%): 61.4%
[5]
  RTV day 15 Mean ± SD: 20.86 ± 4.84
  T/C (%): 81%

Source: patent US9375434B2, “Antitumor effect potentiator composed of imidazooxazine compound” (Taiho Pharmaceutical Co., Ltd., priority 2012, dated 2016)
